Experimental findings from patent US6376497B1, “Antifungal azole derivatives having a fluorinated vinyl group and process for preparing same” (Korea Research Institute of Chemical Technology, priority 1999, dated 2002) are described below.

Assay in all cases: In vitro antifungal activity, microbroth dilution MIC
Type in all cases: cell-based
Common to all, as to conditions: RPMI-1640, 35° C., 4 to 48 hours, no growth observed
A general note: In broth dilution the organism is exposed to a series of concentrations in liquid medium.

In test [1] the test system is Trichophyton mentagrophytes A. 9129. The method in brief:
(§1)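 Broth microdilution adapted from NCCLS M27, in RPMI-1640 with 0.165 M MOPS, pH 7.0. Yeast or mould inoculum at 2×10^3 CFU/ml was mixed 1:1 with DMSO-derived compound solutions (200 to 0.10 μg/ml before mixing) and incubated at 35 °C for 4 to 48 h. MIC was the concentration showing no growth.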

The subject of test [2] is Aspergillus furnigatus B. 19119. Put shortly: as §1
For test [3], the system named is Candida pseudotropicalis K. 11658. The method in brief:
as §1

In test [4] the test system is Trichophyton mentagrophytes B. 32663. Put shortly:
as §1

Test [5] concerns Candida parapsitosis A. 7330. Put shortly:
as §1

Test [6] concerns Cryptococcus neoformans IFM. 40092. Put shortly:
as §1

Test [7] has as its system Cryptococcus neoformans A. 34144. The method in brief: as §1
Test [8] relates to Candida albicans A. 10231. The method in brief:
as §1

For test [9], the system named is Cryptococcus neoformans B. 42419. The method in brief: as §1
The test system of test [10] is Torulopsis glabrata B. 16205. The method in brief: as §1
Test [11] deals with Candida albicans IFO. 1385. The method in brief:
as §1

Test [12] deals with Candida tropicalis A. 13803. Put shortly: as §1
The test system of test [13] is Aspergillus niger A. 16404. The method in brief: as §1
A further test concerns Candida krusei K. 11655. The method in brief:
as §1

The subject of another test is Candida albicans C1-2. The method in brief: as §1

For the molecule `FC(Oc1ccc(OCC2COC(Cn3cncn3)(c3ccc(Cl)cc3Cl)O2)cc1)=C(c1ccccc1)C(F)(F)F` (mixture of isomers) [Ex. 119], the “Minimal inhibitory concentration(MIC), T. mentagrophytes A. 9129” value in test [1] turned out to be 6.25 µg/mL. The “Minimal inhibitory concentration(MIC), A furnigatus B. 19119” value in test [2] was above 100 µg/mL. The “Minimal inhibitory concentration(MIC), C. pseudotropicalis K. 11658” value in test [3] was above 100 µg/mL. Also, the “Minimal inhibitory concentration(MIC), T. mentagrophytes B. 32663” value in test [4] stood at 3.13 µg/mL. In addition, the “Minimal inhibitory concentration(MIC), C. parapsitosis A. 7330” value in [5] was above 100 µg/mL. Moreover, the “Minimal inhibitory concentration(MIC), Cry. neoformans IFM. 40092” value in test [6] amounted to 0.39 µg/mL. In test [7], the “Minimal inhibitory concentration(MIC), Cry. neoformans A. 34144” value stood at 1.56 µg/mL. Further, the “Minimal inhibitory concentration(MIC), C. albicans A. 10231” value in [8] was determined as 50.0 µg/mL. Moreover, in test [9], the “Minimal inhibitory concentration(MIC), Cry. neoformans B. 42419” value was found to be 1.56 µg/mL. The “Minimal inhibitory concentration(MIC), T. glabrata B. 16205” value in test [10] came to 50.0 µg/mL. In addition, the “Minimal inhibitory concentration(MIC), C. albicans IFO. 1385” value in test [11] was determined as 1.56 µg/mL. Besides, the “Minimal inhibitory concentration(MIC), C. tropicalis A. 13803” value in test [12] is above 100 µg/mL. Further, the “Minimal inhibitory concentration(MIC), A. niger A. 16404” value in [13] is above 100 µg/mL. Also, in the test on Candida krusei K. 11655, the “Minimal inhibitory concentration(MIC), C. krusei K. 11655” value was above 100 µg/mL. The “Minimal inhibitory concentration(MIC), C. albicans C1-2” value in the test on Candida albicans C1-2 came out at 25.0 µg/mL.
In the case of `Cc1ccc(C(=C(F)Oc2ccc(OCC3COC(Cn4cncn4)(c4ccc(Cl)cc4Cl)O3)cc2)C(F)(F)F)cc1` (mixture of isomers) [Ex. 120], the “Minimal inhibitory concentration(MIC), T. mentagrophytes A. 9129” value in test [1] is 6.25 µg/mL. Further, the “Minimal inhibitory concentration(MIC), A furnigatus B. 19119” value in test [2] was above 100 µg/mL. Moreover, the “Minimal inhibitory concentration(MIC), C. pseudotropicalis K. 11658” value in [3] is above 100 µg/mL. Besides, the “Minimal inhibitory concentration(MIC), T. mentagrophytes B. 32663” value in test [4] came to 3.13 µg/mL. For the same molecule, in test [5], the “Minimal inhibitory concentration(MIC), C. parapsitosis A. 7330” value is above 100 µg/mL. The “Minimal inhibitory concentration(MIC), Cry. neoformans IFM. 40092” value in [6] stood at 0.39 µg/mL. Moreover, the “Minimal inhibitory concentration(MIC), Cry. neoformans A. 34144” value in test [7] worked out at 1.56 µg/mL. The “Minimal inhibitory concentration(MIC), C. albicans A. 10231” value in test [8] was found to be 25.0 µg/mL. Further, the “Minimal inhibitory concentration(MIC), Cry. neoformans B. 42419” value in test [9] was 3.13 µg/mL. In addition, in test [10], the “Minimal inhibitory concentration(MIC), T. glabrata B. 16205” value was 50.0 µg/mL. Moreover, in test [11], the “Minimal inhibitory concentration(MIC), C. albicans IFO. 1385” value is 1.56 µg/mL. Further, the “Minimal inhibitory concentration(MIC), C. tropicalis A. 13803” value in test [12] was determined as 100 µg/mL. Further, in test [13], the “Minimal inhibitory concentration(MIC), A. niger A. 16404” value was above 100 µg/mL. Further, the “Minimal inhibitory concentration(MIC), C. krusei K. 11655” value with Candida krusei K. 11655 was above 100 µg/mL. Further, the “Minimal inhibitory concentration(MIC), C. albicans C1-2” value in the test with Candida albicans C1-2 was found to be 25.0 µg/mL.
With `COc1ccc(C(=C(F)Oc2ccc(OCC3COC(Cn4cncn4)(c4ccc(Cl)cc4Cl)O3)cc2)C(F)(F)F)cc1` (mixture of isomers) [Ex. 121], in test [1], the “Minimal inhibitory concentration(MIC), T. mentagrophytes A. 9129” value was determined as 6.25 µg/mL. For the same molecule, the “Minimal inhibitory concentration(MIC), A furnigatus B. 19119” value in [2] was above 100 µg/mL. Moreover, the “Minimal inhibitory concentration(MIC), C. pseudotropicalis K. 11658” value in [3] amounted to 25.0 µg/mL. Further, the “Minimal inhibitory concentration(MIC), T. mentagrophytes B. 32663” value in test [4] was 3.13 µg/mL. Further, the “Minimal inhibitory concentration(MIC), C. parapsitosis A. 7330” value in test [5] is 100 µg/mL. Moreover, the “Minimal inhibitory concentration(MIC), Cry. neoformans IFM. 40092” value in [6] is 0.20 µg/mL. For the same molecule, the “Minimal inhibitory concentration(MIC), Cry. neoformans A. 34144” value in test [7] was determined as 1.56 µg/mL. Moreover, the “Minimal inhibitory concentration(MIC), C. albicans A. 10231” value in test [8] amounted to 100 µg/mL. In addition, the “Minimal inhibitory concentration(MIC), Cry. neoformans B. 42419” value in test [9] stood at 1.56 µg/mL. Further, the “Minimal inhibitory concentration(MIC), T. glabrata B. 16205” value in test [10] is 50.0 µg/mL. The “Minimal inhibitory concentration(MIC), C. albicans IFO. 1385” value in [11] worked out at 3.13 µg/mL. Besides, the “Minimal inhibitory concentration(MIC), C. tropicalis A. 13803” value in test [12] was above 100 µg/mL. Also, in test [13], the “Minimal inhibitory concentration(MIC), A. niger A. 16404” value is above 100 µg/mL. Moreover, the “Minimal inhibitory concentration(MIC), C. krusei K. 11655” value with Candida krusei K. 11655 is 100 µg/mL. The “Minimal inhibitory concentration(MIC), C. albicans C1-2” value in the test on Candida albicans C1-2 stood at 100 µg/mL.
As to `FC(Oc1ccc(OCC2COC(Cn3cncn3)(c3ccc(Cl)cc3Cl)O2)cc1)=C(c1ccc(Cl)cc1)C(F)(F)F` (mixture of isomers) [Ex. 122], in test [1], the “Minimal inhibitory concentration(MIC), T. mentagrophytes A. 9129” value turned out to be 6.25 µg/mL. For the same molecule, in test [2], the “Minimal inhibitory concentration(MIC), A furnigatus B. 19119” value is 12.5 µg/mL. In addition, the “Minimal inhibitory concentration(MIC), C. pseudotropicalis K. 11658” value in [3] amounted to 6.25 µg/mL. Also, the “Minimal inhibitory concentration(MIC), T. mentagrophytes B. 32663” value in test [4] was determined as 3.13 µg/mL. Besides, the “Minimal inhibitory concentration(MIC), C. parapsitosis A. 7330” value in test [5] came to 6.25 µg/mL. Also, the “Minimal inhibitory concentration(MIC), Cry. neoformans IFM. 40092” value in [6] worked out at 0.20 µg/mL. For the same molecule, the “Minimal inhibitory concentration(MIC), Cry. neoformans A. 34144” value in test [7] was 0.78 µg/mL. The “Minimal inhibitory concentration(MIC), C. albicans A. 10231” value in test [8] is 12.5 µg/mL. The “Minimal inhibitory concentration(MIC), Cry. neoformans B. 42419” value in test [9] amounted to 1.56 µg/mL. Further, in [10], the “Minimal inhibitory concentration(MIC), T. glabrata B. 16205” value is 12.5 µg/mL. For the same molecule, the “Minimal inhibitory concentration(MIC), C. albicans IFO. 1385” value in test [11] came to 0.78 µg/mL. Also, in test [12], the “Minimal inhibitory concentration(MIC), C. tropicalis A. 13803” value came out at 25.0 µg/mL. In [13], the “Minimal inhibitory concentration(MIC), A. niger A. 16404” value was found to be 100 µg/mL. In addition, the “Minimal inhibitory concentration(MIC), C. krusei K. 11655” value in the test with Candida krusei K. 11655 turned out to be 12.5 µg/mL. The “Minimal inhibitory concentration(MIC), C. albicans C1-2” value in the test with Candida albicans C1-2 was found to be 6.25 µg/mL.
Regarding `FC(Oc1ccc(OCC2COC(Cn3cncn3)(c3ccc(Cl)cc3Cl)O2)cc1)=C(c1ccc(F)cc1)C(F)(F)F` (mixture of isomers) [Ex. 123], the “Minimal inhibitory concentration(MIC), T. mentagrophytes A. 9129” value in test [1] was found to be 6.25 µg/mL. In addition, the “Minimal inhibitory concentration(MIC), A furnigatus B. 19119” value in [2] is above 100 µg/mL. Also, in [3], the “Minimal inhibitory concentration(MIC), C. pseudotropicalis K. 11658” value is 25.0 µg/mL. Moreover, the “Minimal inhibitory concentration(MIC), T. mentagrophytes B. 32663” value in [4] worked out at 3.13 µg/mL. In test [5], the “Minimal inhibitory concentration(MIC), C. parapsitosis A. 7330” value is above 100 µg/mL. In test [6], the “Minimal inhibitory concentration(MIC), Cry. neoformans IFM. 40092” value was found to be 0.39 µg/mL. Besides, in [7], the “Minimal inhibitory concentration(MIC), Cry. neoformans A. 34144” value was 1.56 µg/mL. The “Minimal inhibitory concentration(MIC), C. albicans A. 10231” value in [8] is 25.0 µg/mL. Also, the “Minimal inhibitory concentration(MIC), Cry. neoformans B. 42419” value in test [9] came to 1.56 µg/mL. Besides, the “Minimal inhibitory concentration(MIC), T. glabrata B. 16205” value in test [10] came to 50.0 µg/mL. In test [11], the “Minimal inhibitory concentration(MIC), C. albicans IFO. 1385” value came out at 1.56 µg/mL. In addition, the “Minimal inhibitory concentration(MIC), C. tropicalis A. 13803” value in test [12] worked out at 100 µg/mL. For the same molecule, the “Minimal inhibitory concentration(MIC), A. niger A. 16404” value in test [13] is above 100 µg/mL. The “Minimal inhibitory concentration(MIC), C. krusei K. 11655” value with Candida krusei K. 11655 was above 100 µg/mL. For the same molecule, the “Minimal inhibitory concentration(MIC), C. albicans C1-2” value in the test with Candida albicans C1-2 was 12.5 µg/mL.
For the molecule `FC(=C(c1ccccc1)C(F)(F)F)N1CCN(c2ccc(OCC3COC(Cn4ccnc4)(c4ccc(Cl)cc4Cl)O3)cc2)CC1` (mixture of isomers) [Ex. 124], the “Minimal inhibitory concentration(MIC), T. mentagrophytes A. 9129” value in test [1] was found to be 6.25 µg/mL. In addition, the “Minimal inhibitory concentration(MIC), A furnigatus B. 19119” value in [2] is above 100 µg/mL. Besides, the “Minimal inhibitory concentration(MIC), C. pseudotropicalis K. 11658” value in [3] was above 100 µg/mL. Besides, in test [4], the “Minimal inhibitory concentration(MIC), T. mentagrophytes B. 32663” value was 3.13 µg/mL. In addition, the “Minimal inhibitory concentration(MIC), C. parapsitosis A. 7330” value in [5] was above 100 µg/mL. For the same molecule, the “Minimal inhibitory concentration(MIC), Cry. neoformans IFM. 40092” value in test [6] was found to be 0.39 µg/mL. In addition, the “Minimal inhibitory concentration(MIC), Cry. neoformans A. 34144” value in test [7] was 1.56 µg/mL. For the same molecule, in [8], the “Minimal inhibitory concentration(MIC), C. albicans A. 10231” value stood at 50.0 µg/mL. In addition, the “Minimal inhibitory concentration(MIC), Cry. neoformans B. 42419” value in test [9] is 1.56 µg/mL. Further, in [10], the “Minimal inhibitory concentration(MIC), T. glabrata B. 16205” value was determined as 50.0 µg/mL. Also, in [11], the “Minimal inhibitory concentration(MIC), C. albicans IFO. 1385” value came to 1.56 µg/mL. In test [12], the “Minimal inhibitory concentration(MIC), C. tropicalis A. 13803” value was above 100 µg/mL. Moreover, the “Minimal inhibitory concentration(MIC), A. niger A. 16404” value in test [13] is above 100 µg/mL. Further, the “Minimal inhibitory concentration(MIC), C. krusei K. 11655” value in the test with Candida krusei K. 11655 is above 100 µg/mL. For the same molecule, the “Minimal inhibitory concentration(MIC), C. albicans C1-2” value in the test on Candida albicans C1-2 was found to be 25.0 µg/mL.
